Results from patent publication US20260184726A1, “HETEROCYCLIC COMPOUNDS AS KINASE INHIBITORS, COMPOSITIONS, AND METHODS OF USE THEREOF” (JS INNOMED HOLDINGS LTD., priority 2022, published 2026).
pIC50: −log10 of the molar value.

Key:
BAF3 cells = assay: BAF3 Cell Proliferation Assay (CellTiter-Glo, without RET driven, IL-3); assay type: cell-based; conditions: Mus musculus; growth inhibition in BAF3 cells, 72 hours, with IL-3; read-out: BAF3 Cellular Activity
Procedure: Compounds disclosed herein were tested for the inhibition BAF3 cells proliferation without RET driven by CellTiter-Glo assay. In this assay, a complete media was prepared by adding 10% fetal bovine serum and 1 ng/ml IL-3 to RPMI-1640 medium (Life technology) for BAF3 cells. BAF3 cells were added to each of 88 wells of a 96 well plate at a seeding density of 2,000 cells/well/95 μL. The cells were allowed to attach to the plate by incubating at 37° C. for 24 hours. The compound was dissolved in DMSO (SIGMA). A solution of test compound was prepared in complete media by serial dilution to obtain the following concentrations: 200 μM, 66.7 μM, 22.2 μM, 7.4 μM, 2.5 μM, 0.82 μM, 0.27 μM, 0.091 μM and […]. The test compound solution (5 μL) was added to each of 80 cell-containing wells. The final concentrations of the compound were following: 10 μM, 3.33 μM, 1.11 μM, 0.37 μM, 0.12 μM, 0.041 μM, 0.014 μM, 0.0046 μM and 0.0015 μM. The final concentration of DMSO is 0.1%. To the 8 remaining cell-containing wells, only complete media (containing 0.1% DMSO) was added to form a control group in order to measure maximal proliferation. To the remaining 8 empty wells, complete media was added to for a vehicle control group in order to measure background. The plates were incubated at 37° C. for 72 hours. 50 μl of CellTiter-Glo® Reagent was added to each well. The contents were mixed for 2 minutes on an orbital shaker to induce cell lysis, and then were incubated at room temperature for 10 minutes to stabilize luminescent signal. Luminescence was recorded on Paradigm. Cell viability (CV %) was calculated relative to vehicle (DMSO) treated control wells. The IC50 was calculated using GraphPad Prism.

BAF3-KIF5B-RET cells = target: T1, BAF3-KIF5B-RET cells (Homo sapiens, UniProt P07949); assay: BAF3-KIF5B-RET Cell Proliferation Assay (CellTiter-Glo); assay type: cell-based; conditions: growth inhibition, 72 hours; Table 2; read-out: BA/F3-KIF5B-RET Cellular activity
T1 construct: fused on or other part: P33176 (Kinesin-1 heavy chain)
T1 sequence (P07949 whole entry, change not shown, the tested form may be a part): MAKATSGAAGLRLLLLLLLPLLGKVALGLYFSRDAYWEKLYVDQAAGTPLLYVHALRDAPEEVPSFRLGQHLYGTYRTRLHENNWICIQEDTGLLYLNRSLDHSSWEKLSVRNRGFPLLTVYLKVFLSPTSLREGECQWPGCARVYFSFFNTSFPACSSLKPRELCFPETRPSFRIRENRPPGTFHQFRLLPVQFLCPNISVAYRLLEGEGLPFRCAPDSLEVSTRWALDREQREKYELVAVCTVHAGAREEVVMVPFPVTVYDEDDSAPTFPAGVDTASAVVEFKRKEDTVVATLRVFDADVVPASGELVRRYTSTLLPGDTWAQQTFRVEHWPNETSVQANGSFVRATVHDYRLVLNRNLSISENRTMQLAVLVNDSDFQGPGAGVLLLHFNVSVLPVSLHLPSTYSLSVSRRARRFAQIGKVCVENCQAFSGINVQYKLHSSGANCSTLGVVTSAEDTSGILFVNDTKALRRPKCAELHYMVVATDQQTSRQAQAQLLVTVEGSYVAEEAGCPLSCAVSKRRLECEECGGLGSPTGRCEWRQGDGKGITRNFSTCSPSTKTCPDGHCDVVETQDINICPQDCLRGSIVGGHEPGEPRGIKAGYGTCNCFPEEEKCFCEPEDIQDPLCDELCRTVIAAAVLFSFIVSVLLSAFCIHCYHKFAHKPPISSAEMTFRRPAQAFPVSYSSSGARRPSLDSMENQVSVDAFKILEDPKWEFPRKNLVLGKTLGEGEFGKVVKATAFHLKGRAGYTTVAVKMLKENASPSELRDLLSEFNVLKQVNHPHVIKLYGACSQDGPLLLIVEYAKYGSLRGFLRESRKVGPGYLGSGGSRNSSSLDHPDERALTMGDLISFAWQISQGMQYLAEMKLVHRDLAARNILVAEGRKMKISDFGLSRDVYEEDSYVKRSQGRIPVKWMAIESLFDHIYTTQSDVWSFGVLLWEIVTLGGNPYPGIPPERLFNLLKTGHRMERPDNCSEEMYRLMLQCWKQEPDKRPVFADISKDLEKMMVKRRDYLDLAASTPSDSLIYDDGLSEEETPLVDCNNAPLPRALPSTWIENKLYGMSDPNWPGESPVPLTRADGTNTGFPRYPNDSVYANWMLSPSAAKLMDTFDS
Procedure: Compounds disclosed herein were tested for the inhibition of RET by a cancer cell proliferation assay commonly known as CellTiter-Glo assay. In this assay, a complete media was prepared by adding 10% fetal bovine serum to RPMI-1640 medium (Life technology) for RET-driven cancer cells (BAF3-FIF5B-RET, Ba/F3-KIF5B-RET-G810R, Ba/F3-TEL-RET-M918T or Ba/F3-KIF5B-RET-V804M). Individual RET-driven type of cells were added to each of 88 wells of a 96 well plate at a seeding density of 2,000 cells/well/95 μL. The cells were allowed to attach to the plate by incubating at 37° C. for 24 hours. The compound was dissolved in DMSO (SIGMA). A solution of test compound was prepared in complete media by serial dilution to obtain the following concentrations: 20 μM, 6.67 μM, 2.22 μM, 0.74 μM, 0.25 μM, 0.082 μM, 0.027 μM, 0.0091 μM and 0.0030 μM. The test compound solution (5 μL) was added to each of 80 cell-containing wells. The final concentrations of the compound were following: 1 μM, 0.33 μM, 0.11 μM, 0.037 μM, 0.012 μM, 0.0041 μM, 0.0014 μM, 0.00046 μM and 0.00015 μM. The final concentration of DMSO is 0.1%. To the 8 remaining cell-containing wells, only complete media (containing 0.1% DMSO) was added to form a control group in order to measure maximal proliferation. To the remaining 8 empty wells, complete media was added to for a vehicle control group in order to measure background. The plates were incubated at 37° C. for 72 hours. 50 μl of CellTiter-Glo® Reagent was added to each well. Mix contents for 2 minutes on an orbital shaker to induce cell lysis. Incubate at room temperature for 10 minutes to stabilize luminescent signal. Record luminescence on Paradigm. Cell viability (CV %) was calculated relative to vehicle (DMSO) treated control wells. The IC50 was calculated using GraphPad Prism.

SMILES | pIC50 (BAF3 cells) | GI50 (BAF3-KIF5B-RET cells) [nM]
COc1ccc(CN2C3CC2CN(c2ccc(-c4cc(-c5ccc(C(C)(C)O)nn5)cn5ncc(C#N)c45)cn2)C3)cn1 [Example 19, 6-(6-(2-hydroxypropan-2-yl)pyridazin-3-yl)-4-(6-(6-((6-methoxypyridin-3-yl)methyl)-3,6-diazabicyclo[3.1.1]heptan-3-yl)pyridin-3-yl)pyrazolo[1,5-a]pyridine-3-carbonitrile] | 5.90 | 1.7
COc1ccc(CN2C3CC2CN(c2cnc(-c4cc(-c5ccc(C(C)(C)O)nn5)cn5ncc(C#N)c45)cn2)C3)cn1 [Example 20, 6-(6-(2-hydroxypropan-2-yl)pyridazin-3-yl)-4-(5-(6-((6-methoxypyridin-3-yl)methyl)-3,6-diazabicyclo[3.1.1]heptan-3-yl)pyrazin-2-yl)pyrazolo[1,5-a]pyridine-3-carbonitrile] | 5.83 | 6.7
CC(C)(O)c1ccc(-c2cc(-c3ccc(N4C[C@@H]5[C@H](C4)[C@H]5NC(=O)c4ncccc4Cl)nc3)c3c(C#N)cnn3c2)nc1 [Example 21, 3-chloro-N-((1R,5S,6s)-3-(5-(3-cyano-6-(5-(2-hydroxypropan-2-yl)pyridin-2-yl)pyrazolo[1,5-a]pyridin-4-yl)pyridin-2-yl)-3-azabicyclo[3.1.0]hexan-6-yl)picolinamide] | 6.45 | 28.8
COc1ccc(CN2C3CC2CN(c2ccc(-c4cc(-c5ccc(C(C)(C)O)cc5)cn5ncc(C#N)c45)cn2)C3)cn1 [Example 22, 6-(4-(2-hydroxypropan-2-yl)phenyl)-4-(6-(6-((6-methoxypyridin-3-yl)methyl)-3,6-diazabicyclo[3.1.1]heptan-3-yl)pyridin-3-yl)pyrazolo[1,5-a]pyridine-3-carbonitrile] | 6.12 | 0.7
COc1ccc(CN2C3CC2CN(c2ccc(-c4cc(-c5ncc(C(C)(C)O)cc5F)cn5ncc(C#N)c45)cn2)C3)cn1 [Example 24, 6-(3-fluoro-5-(2-hydroxypropan-2-yl)pyridin-2-yl)-4-(6-(6-((6-methoxypyridin-3-yl)methyl)-3,6-diazabicyclo[3.1.1]heptan-3-yl)pyridin-3-yl)pyrazolo[1,5-a]pyridine-3-carbonitrile] | 5.60 | 3.5
COc1ccc(C(=O)N2C3CC2CN(c2ccc(-c4cc(-c5ccc(C(C)(C)O)cn5)cn5ncc(C#N)c45)cn2)C3)cn1 [Example 25, 6-(5-(2-hydroxypropan-2-yl)pyridin-2-yl)-4-(6-(6-(6-methoxynicotinoyl)-3,6-diazabicyclo[3.1.1]heptan-3-yl)pyridin-3-yl)pyrazolo[1,5-a]pyridine-3-carbonitrile] | 5.18 | 2.7
COc1ccc(CN2C3CC2CN(c2ccc(-c4cc(-c5cc(C(C)(C)O)nn5C)cn5ncc(C#N)c45)cn2)C3)cn1 [Example 26, 6-(3-(2-hydroxypropan-2-yl)-1-methyl-1H-pyrazol-5-yl)-4-(6-(6-((6-methoxypyridin-3-yl)methyl)-3,6-diazabicyclo[3.1.1]heptan-3-yl)pyridin-3-yl)pyrazolo[1,5-a]pyridine-3-carbonitrile] | < 5.00 | 46.8
COc1ccc(CN2C3CC2CN(c2ccc(-c4cc(-c5ccc(C(C)(C)O)s5)cn5ncc(C#N)c45)cn2)C3)cn1 [Example 27, 6-(5-(2-hydroxypropan-2-yl)thiophen-2-yl)-4-(6-(6-((6-methoxypyridin-3-yl)methyl)-3,6-diazabicyclo[3.1.1]heptan-3-yl)pyridin-3-yl)pyrazolo[1,5-a]pyridine-3-carbonitrile] | 6.04 | 0.7
COc1ccc(CN2C3CC2CN(c2ccc(-c4cc(-c5cc(C(C)(C)NC(C)=O)n(C)n5)cn5ncc(C#N)c45)cn2)C3)cn1 [Example 28, N-(2-(3-(3-cyano-4-(6-(6-((6-methoxypyridin-3-yl)methyl)-3,6-diazabicyclo[3.1.1]heptan-3-yl)pyridin-3-yl)pyrazolo[1,5-a]pyridin-6-yl)-1-methyl-1H-pyrazol-5-yl)propan-2-yl)acetamide] | 5.63 | 4
COc1ccc(CN2C3CC2CN(c2ccc(-c4cc(-c5ccc(OCC(C)(C)O)cn5)cn5ncc(C#N)c45)cn2)C3)cn1 [Example 32, 6-(5-(2-hydroxy-2-methylpropoxy)pyridin-2-yl)-4-(6-(6-((6-methoxypyridin-3-yl)methyl)-3,6-diazabicyclo[3.1.1]heptan-3-yl)pyridin-3-yl)pyrazolo[1,5-a]pyridine-3-carbonitrile] | 5.79 | 1.4
COc1ccc(CN2C3CC2CN(c2ccc(-c4cc(-c5ccc(OCC(C)(C)O)nc5)cn5ncc(C#N)c45)cn2)C3)cn1 [Example 33, 6-(6-(2-hydroxy-2-methylpropoxy)pyridin-3-yl)-4-(6-(6-((6-methoxypyridin-3-yl)methyl)-3,6-diazabicyclo[3.1.1]heptan-3-yl)pyridin-3-yl)pyrazolo[1,5-a]pyridine-3-carbonitrile] | 5.59 | 5.1
COc1ccc(CN2C3CC2CN(c2ccc(-c4cc(-c5ccn(CC(C)(C)O)n5)cn5ncc(C#N)c45)cn2)C3)cn1 [Example 34, 6-(1-(2-hydroxy-2-methylpropyl)-1H-pyrazol-3-yl)-4-(6-(6-((6-methoxypyridin-3-yl)methyl)-3,6-diazabicyclo[3.1.1]heptan-3-yl)pyridin-3-yl)pyrazolo[1,5-a]pyridine-3-carbonitrile] | 5.75 | 0.7
COc1ccc(CN2C3CC2CN(c2ccc(-c4cc(-c5cnn(CC(C)(C)O)c5)cn5ncc(C#N)c45)cn2)C3)cn1 [Example 35, 6-(1-(2-hydroxy-2-methylpropyl)-1H-pyrazol-4-yl)-4-(6-(6-((6-methoxypyridin-3-yl)methyl)-3,6-diazabicyclo[3.1.1]heptan-3-yl)pyridin-3-yl)pyrazolo[1,5-a]pyridine-3-carbonitrile] | 6.47 | 0.5
COc1ccc(CN2C3CC2CN(c2ccc(-c4cc(-c5ccc(S(N)(=O)=O)cn5)cn5ncc(C#N)c45)cn2)C3)cn1 [Example 36, 6-(3-cyano-4-(6-(6-((6-methoxypyridin-3-yl)methyl)-3,6-diazabicyclo[3.1.1]heptan-3-yl)pyridin-3-yl)pyrazolo[1,5-a]pyridin-6-yl)pyridine-3-sulfonamide] | 5.09 | 16.6
